The source made the active and inactive calls.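 The calls were made as follows: active = compounds giving half or more protection of infected cells from virus-caused growth loss, again on retest; inactive = the rest.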 Where a SMILES comes first, the peptide text is derived from it. [ ]: non-standard residue; d: D form. Ac5c = NC1(C(=O)O)CCCC1
Tested on: CEM cells HIV-1 protection, formazan growth assay
Assay: NCI AIDS Antiviral Assay
Conditions: for IC50: measured here: growth of uninfected CEM cells
Method in brief: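 Screen of anti-HIV-1 activity in human CEM cells using a formazan-based growth measurement at five drug concentrations. Hits with 50% or greater protection were repeated, and confirmation required reproducible complete protection.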

SMILES	EC50	IC50	outcome
CC(=O)N(C(C)=O)c1cc2c3c(c1)CCCN3CCC2	> 200 µM	182 µM	–
O=C1C2=Cc3ccccc3OC2(O)Oc2cc(O)ccc21 (stereo unspecified)	> 200 µM	49 µM	–
COc1ccc(/C=N/NC(=O)c2cnc3[nH]c(=O)n(C)c(=O)c3c2)cc1	> 200 µM	> 200 µM	–
Cc1[nH]n(C(=O)Cc2ccccc2)c(=O)c1/C=C1\C(=O)C=Cc2ccccc21	> 51.3 µM	> 51.3 µM	–
CCc1cccc(C(C)(C)C)c1NC(=S)N/C=C(\C#N)C(=O)c1ccc2ccccc2c1	> 200 µM	93.3 µM	–
CCCCc1ccc(Nc2ncc3ncn(COCCO)c3n2)cc1	> 200 µM	51.3 µM	–
COc1cc(/C=C2\CCC(C)C3=C2N=c2s/c(=C/c4ccc(Cl)cc4)c(=O)n2C3c2cc(OC)c(OC)c(OC)c2)cc(OC)c1OC (stereo unspecified)	> 200 µM	102 µM	–
O=S(=O)(O)CCCCCO	> 200 µM	> 200 µM	–
O=[N+]([O-])c1cc(C2SCc3nc4ccccc4n32)ccc1Cl (stereo unspecified)	–	–	inactive
N=c1c2c(C(N)=O)cn(C3OC(CO)C(O)C3O)c2ncn1O (stereo unspecified)	> 0.2 µM	0.191 µM	–
CCCCNc1nc(NC2OCC(OC(C)=O)C(OC(C)=O)C2OC(C)=O)c(N=O)c(=O)n1C (stereo unspecified)	> 200 µM	> 200 µM	–
CC(=O)c1cc(I)c(O)c2ncccc12	> 79.4 µM	1.45 µM	–
COc1cc2c(cc1OC)C(Cl)C(c1cc(OC)c(OC)c(OC)c1)=C2Cl (stereo unspecified)	–	–	inactive
CC(=O)CCCCC(=O)Nc1ccc(CC(NC(=O)OC(C)(C)C)C(=O)NCC(=O)OCc2ccccc2)cc1 (stereo unspecified)	> 200 µM	12.9 µM	–
N#Cc1c(N)oc2cc3c(C#N)c(N)oc3cc12	–	–	inactive
CCOC(=O)c1nc2ccc(C(F)(F)F)cc2nc1Oc1cc(OC)cc(OC)c1	> 200 µM	> 200 µM	–
CCCCCCCCCCCCCCCCCC(=O)NCC(COP(=O)([O-])OCC[N+](C)(C)C)OC (stereo unspecified)	–	–	inactive
CCOC(=O)N(NC(=O)NC(C)C)c1ccccc1	> 200 µM	> 200 µM	–
O=C1CC(=O)NC(=NN2C(=O)/C(=C/c3ccc(Cl)c(Cl)c3)N=C2c2ccccc2)N1	> 200 µM	21.9 µM	–
Nc1ccn(C2CSC(CO)O2)c(=O)n1 (stereo unspecified)	0.145 µM	10 µM	–
CS(=O)(=O)NNS(=O)(=O)c1ccc(Br)cc1	> 398 µM	> 398 µM	–
C/C(=N\NS(=O)(=O)c1ccc([N+](=O)[O-])cc1)c1ccc[n+]([O-])n1	–	–	inactive

SMILES	EC50	IC50	outcome
C=C=C(C)C(C(C)C)N1CCCC1 (stereo unspecified)	> 1230 µM	138 µM	–
O=C1CC[C@@H](S(=O)(=O)c2ccccc2)[C@@H](/C=C/c2ccccc2)O1	–	–	inactive
O=C1/C(=C/c2ccccc2)CN(C(=O)CCN2CCCC2)C/C1=C\c1ccccc1	> 575 µM	0.813 µM	–
COc1cc(CC(=O)O)c(C(=O)c2cccc([N+](=O)[O-])c2)cc1OC	> 200 µM	37.2 µM	–
Cc1nc(-c2ccc([N+](=O)[O-])cc2)cn2c1nc1ccccc12	457 µM	501 µM	–
CCOC(=O)c1nc2cc(F)c(F)cc2nc1NCc1cc(OC)c(OC)c(OC)c1	> 100 µM	> 100 µM	–
Oc1ccccc1C=Nc1ccccc1S.[Cu+2]	> 151 µM	2.57 µM	–
Cc1sc2nc3n(c(=O)c2c1C)N=CN(c1ccc(Cl)cc1)C3	9.33 µM	50.1 µM	–
O=C(N/N=C\c1cccnc1)c1ccncc1	> 200 µM	> 200 µM	–
O=S1CCCCS1 (stereo unspecified)	> 912 µM	17.4 µM	–
C/C(=N\NC(=S)N1CCN(c2ccccn2)CC1)c1nccs1	> 145 µM	0.646 µM	–
CC(C)(C)C1=CC(=C(P(=O)(O)O)P(=O)(O)O)C=C(C(C)(C)C)C1=O	> 537 µM	> 537 µM	–
Nc1nc(Cl)cc(N=Nc2ccccc2)n1	> 200 µM	11.5 µM	–
CC(=O)C(=Cc1cccc(C#N)c1)C(C)=O	> 63.1 µM	34.7 µM	–
C1=Nc2ccc(cc2)N=Cc2ccccc2OCc2cccc(n2)COc2ccccc21	> 200 µM	> 200 µM	–
COC(=O)C1(NC(=O)C(C)NC(=O)C(CCCCN)NC(=O)C(CC(C)C)NC(C)=O)CCCC1 (stereo unspecified) (Ac-LKA[Ac5c]-OMe; configuration not given here)	> 200 µM	> 200 µM	–
CC(C)OP(=O)(OC(C)C)c1ncn(-c2ccc([N+](=O)[O-])cc2)n1	> 513 µM	468 µM	–
CCc1ccc([OH2+])c(C(=O)[O-])c1.CCc1ccc([OH2+])c(C(=O)[O-])c1.CCc1ccc([OH2+])c(C(=O)[O-])c1.CCc1ccc([OH2+])c(C(=O)[O-])c1.[Cu+2].[Cu+2]	> 200 µM	23.4 µM	–
C=CCNC(=O)/C=C\C(=O)O	> 1620 µM	> 1620 µM	–
CC1=C(C(=O)Nc2ccccc2)C(c2ccccc2Cl)C(C(=O)Nc2ccccc2)=C(C)N1	–	–	inactive
CCOC(=O)C12CCCC1(O)N(NC(=O)c1cccc(Cl)c1)C(C)=C2C(=O)OC (stereo unspecified)	> 427 µM	123 µM	–
CC(=O)C1C(=O)C(=O)N(c2ccc([N+](=O)[O-])cc2Cl)C1=O (stereo unspecified)	> 200 µM	95.5 µM	–
